Values of other authors, collected in patent US20220305028A1, “METHOD FOR PREPARING A LIPOSOMAL COMPOSITION COMPRISING LATANOPROST, AND THE PHARMACOLOGICALLY ACTIVE LIPOSOMAL COMPOSITION FOR OPHTHALMOTHERAPY PREPARED BY THIS METHOD” (CONSORTIUM "UKRINDUSTRY", priority 2021, published 2022).

Conditions: aqueous ophthalmic drops

In the case of CC(C)OC(=O)CCC/C=C\C[C@@H]1[C@@H](CC[C@@H](O)CCc2ccccc2)[C@H](O)C[C@@H]1O [latanoprost, Latanoprost], the “penetration of the latanoprost from the drops through a corneal epithelium” value is given as “not more than 5 % of the administered amount”.
